Several values for one entry are separate records, joined by “and”; a condition that tells them apart may be missing. Equal entries are not always repeated.
System: A498 complex spheroids with HUVEC/MSC, growth
Assay: Anticancer human tumor A498 cell line growth inhibition [AhR];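 note: seven day exposure starting three days after spheroid seeding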;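 for viability, T/C: luminescence signal used as a surrogate for viable cells; luminescence viability scaled so 100% equals DMSO vehicle wells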
Conditions: for viability, T/C: stronger effect = lower value; active = viability on the fitted dose curve at most 10% of control; inactive = the rest
In short: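 Agents were dosed in half-log steps down from roughly clinical Cmax, or from 10 microM where Cmax was unknown, alone and with AhR antagonists. Read-out: percent test/control growth of tumor spheroids containing HUVEC and MSC stromal cells.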

[1] = curve of first compound, second compound 0.1 µM
[2] = curve of first compound, second compound 0.316 µM
[3] = curve of first compound, second compound 1 µM
[4] = curve of first compound, second compound 3.16 µM
[5] = curve of first compound, second compound 10 µM
[6] = second compound 0.1 µM, first compound 0.0316 µM
[7] = second compound 0.1 µM, first compound 0.1 µM
[8] = second compound 0.1 µM, first compound 0.316 µM
[9] = second compound 0.1 µM, first compound 1 µM
[10] = second compound 0.1 µM, first compound 3.16 µM
[11] = second compound 0.1 µM, first compound 10 µM
[12] = second compound 0.316 µM, first compound 0.0316 µM
[13] = second compound 0.316 µM, first compound 0.1 µM
[14] = second compound 0.316 µM, first compound 0.316 µM
[15] = second compound 0.316 µM, first compound 1 µM
[16] = second compound 0.316 µM, first compound 3.16 µM
[17] = second compound 0.316 µM, first compound 10 µM
[18] = second compound 1 µM, first compound 0.0316 µM
[19] = second compound 1 µM, first compound 0.1 µM
[20] = second compound 1 µM, first compound 0.316 µM
[21] = second compound 1 µM, first compound 1 µM
[22] = second compound 1 µM, first compound 3.16 µM
[23] = second compound 1 µM, first compound 10 µM
[24] = second compound 3.16 µM, first compound 0.0316 µM
[25] = second compound 3.16 µM, first compound 0.1 µM
[26] = second compound 3.16 µM, first compound 0.316 µM
[27] = second compound 3.16 µM, first compound 1 µM
[28] = second compound 3.16 µM, first compound 3.16 µM
[29] = second compound 3.16 µM, first compound 10 µM
[30] = second compound 10 µM, first compound 0.0316 µM
[31] = second compound 10 µM, first compound 0.1 µM
[32] = second compound 10 µM, first compound 0.316 µM
[33] = second compound 10 µM, first compound 1 µM
[34] = second compound 10 µM, first compound 3.16 µM
[35] = second compound 10 µM, first compound 10 µM

Nc1ccccc1NC(=O)c1ccc(CNC(=O)OCc2cccnc2)cc1 + Cc1ccccc1N=Nc1ccc(NC(=O)c2ccnn2C)c(C)c1
1200 nM: IC50 [4]
1500 nM: IC50 [1]
1430 nM: IC50 [3]
1670 nM: IC50 [2]
inactive: viability, T/C [6] 101% | viability, T/C [7] 91.4% | viability, T/C [8] 82.5% | viability, T/C [9] 64.6% | viability, T/C [10] 26.8% | viability, T/C [12] 123% | viability, T/C [13] 92.6% | viability, T/C [14] 86.5% | viability, T/C [15] 72% | viability, T/C [16] 28.5% | viability, T/C [18] 103% | viability, T/C [19] 96.2% | viability, T/C [20] 82% | viability, T/C [21] 61.5% | viability, T/C [22] 27.3% | viability, T/C [24] 89.3% | viability, T/C [25] 91.6% | viability, T/C [26] 74.4% | viability, T/C [27] 54% | viability, T/C [28] 26.9% | viability, T/C [30] 84% | viability, T/C [31] 80.7% | viability, T/C [32] 67.8% | viability, T/C [33] 53.6% | viability, T/C [34] 29.6%
active: viability, T/C [11] 1.44% | viability, T/C [17] 1.77% | viability, T/C [23] 1.56% | viability, T/C [29] 1.8% | viability, T/C [35] 1.63%
1160 nM: IC50 [5]

CC(C)CC(NC(=O)C(Cc1ccccc1)NC(=O)c1cnccn1)B(O)O (centres undefined) + Cc1cncc(-c2nc(NCCc3c[nH]c4ccccc34)c3ncn(C(C)C)c3n2)c1
5.08 nM: IC50 [2]
3.34 nM: IC50 [4]
inactive: viability, T/C (second compound 0.1 µM, first compound 0.000949 µM) 91% | viability, T/C (second compound 0.1 µM, first compound 0.003 µM) 79.8% | viability, T/C (second compound 0.316 µM, first compound 0.000949 µM) 95.5% | viability, T/C (second compound 0.316 µM, first compound 0.003 µM) 88.7% | viability, T/C (second compound 1 µM, first compound 0.000949 µM) 88.2% | viability, T/C (second compound 1 µM, first compound 0.003 µM) 79.1% | viability, T/C (second compound 3.16 µM, first compound 0.000949 µM) 62.5% | viability, T/C (second compound 3.16 µM, first compound 0.003 µM) 54.9%
4.75 nM: IC50 [1]
< 0.949 nM: IC50 [5]
active: viability, T/C (second compound 0.1 µM, first compound 0.00949 µM) 5.02% | viability, T/C (second compound 0.1 µM, first compound 0.03 µM) 1.12% | viability, T/C (second compound 0.1 µM, first compound 0.0949 µM) 0.37% | viability, T/C (second compound 0.1 µM, first compound 0.3 µM) 0.34% | viability, T/C (second compound 0.316 µM, first compound 0.00949 µM) 4.18% | viability, T/C (second compound 0.316 µM, first compound 0.03 µM) 1.1% | viability, T/C (second compound 0.316 µM, first compound 0.0949 µM) 0.36% | viability, T/C (second compound 0.316 µM, first compound 0.3 µM) 0.3% | viability, T/C (second compound 1 µM, first compound 0.00949 µM) 4.22% | viability, T/C (second compound 1 µM, first compound 0.03 µM) 0.83% | viability, T/C (second compound 1 µM, first compound 0.0949 µM) 0.33% | viability, T/C (second compound 1 µM, first compound 0.3 µM) 0.36% | viability, T/C (second compound 3.16 µM, first compound 0.00949 µM) 3.44% | viability, T/C (second compound 3.16 µM, first compound 0.03 µM) 0.63% | viability, T/C (second compound 3.16 µM, first compound 0.0949 µM) 0.22% | viability, T/C (second compound 3.16 µM, first compound 0.3 µM) 0.3% | viability, T/C (second compound 10 µM, first compound 0.000949 µM) 5.04% | viability, T/C (second compound 10 µM, first compound 0.003 µM) 3.31% | viability, T/C (second compound 10 µM, first compound 0.00949 µM) 0.4% | viability, T/C (second compound 10 µM, first compound 0.03 µM) 0.14% | viability, T/C (second compound 10 µM, first compound 0.0949 µM) 0.15% | viability, T/C (second compound 10 µM, first compound 0.3 µM) 0.22%
4.69 nM: IC50 [3]

CC1COCCN1c1cc(-c2ccnn2C)c2ccnc(-c3ccn[nH]3)c2n1 (centres undefined) + Cc1ccccc1N=Nc1ccc(NC(=O)c2ccnn2C)c(C)c1
84.7 nM: IC50 [5]
21.9 nM: IC50 [1]
97 nM: IC50 [4]
50.3 nM: IC50 [2]
inactive: viability, T/C (second compound 0.1 µM, first compound 0.00316 µM) 71.7% | viability, T/C (second compound 0.1 µM, first compound 0.01 µM) 54.4% | viability, T/C [6] 49.7% | viability, T/C [7] 34.2% | viability, T/C [8] 25.1% | viability, T/C [9] 15.7% | viability, T/C (second compound 0.316 µM, first compound 0.00316 µM) 71.2% | viability, T/C (second compound 0.316 µM, first compound 0.01 µM) 86.6% | viability, T/C [12] 58.8% | viability, T/C [13] 33.9% | viability, T/C [14] 17.8% | viability, T/C [15] 17.8% | viability, T/C (second compound 1 µM, first compound 0.00316 µM) 87.5% | viability, T/C (second compound 1 µM, first compound 0.01 µM) 94.8% | viability, T/C [18] 74.7% | viability, T/C [19] 47.4% | viability, T/C [20] 16.4% | viability, T/C [21] 12.9% | viability, T/C (second compound 3.16 µM, first compound 0.00316 µM) 94.7% | viability, T/C (second compound 3.16 µM, first compound 0.01 µM) 87.7% | viability, T/C [24] 84.3% | viability, T/C [25] 47.9% | viability, T/C [26] 20.8% | viability, T/C [27] 11.1% | viability, T/C (second compound 10 µM, first compound 0.00316 µM) 90.1% | viability, T/C (second compound 10 µM, first compound 0.01 µM) 87.1% | viability, T/C [30] 69.9% | viability, T/C [31] 47.6% | viability, T/C [32] 23.1% | viability, T/C [33] 13.9%
84.9 nM: IC50 [3]

COc1ccc([C@@H](O)c2cc(-c3ncnc4cc(N5CCOCC5)ccc34)c(F)cc2Cl)nn1 + Cc1cncc(-c2nc(NCCc3c[nH]c4ccccc34)c3ncn(C(C)C)c3n2)c1
549 nM: IC50 [2]
< 31.6 nM: IC50 [4] | IC50 [5]
active: viability, T/C [30] 3.91% | viability, T/C [31] 4.22% | viability, T/C [32] 4.26% | viability, T/C [33] 3.54% | viability, T/C [34] 3.86% | viability, T/C [35] 8.65%
477 nM: IC50 [1]
434 nM: IC50 [3]
inactive: viability, T/C [6] 89.2% | viability, T/C [7] 86.9% | viability, T/C [8] 59% | viability, T/C [9] 30.6% | viability, T/C [10] 19.1% | viability, T/C [11] 10.1% | viability, T/C [12] 89.5% | viability, T/C [13] 85.9% | viability, T/C [14] 67% | viability, T/C [15] 31.1% | viability, T/C [16] 17.7% | viability, T/C [17] 11.8% | viability, T/C [18] 80.6% | viability, T/C [19] 85.1% | viability, T/C [20] 57.5% | viability, T/C [21] 26.6% | viability, T/C [22] 17.5% | viability, T/C [23] 12.4% | viability, T/C [24] 45.1% | viability, T/C [25] 49.3% | viability, T/C [26] 39.3% | viability, T/C [27] 25% | viability, T/C [28] 15.4% | viability, T/C [29] 11.6%

CC(C)c1c(-c2ccccc2)nc2c(C#N)c[nH]n2c1=O
inactive: viability, T/C (compound 0.0316 µM) 109% and 96.5% and 102% | viability, T/C (compound 0.1 µM) 113% and 109% and 96% | viability, T/C (compound 0.316 µM) 104% and 105% and 96.3% | viability, T/C (compound 1 µM) 99.8% and 104% and 97.1% | viability, T/C (compound 3.16 µM) 102% (2×) and 98.6% | viability, T/C (compound 10 µM) 106% and 112% and 96.8%
> 10000 nM: IC50 (curve of compound)

NS(=O)(=O)OCC1CC(n2ccc3c(NC4CCc5ccccc54)ncnc32)CC1O (centres undefined) + Cc1ccccc1N=Nc1ccc(NC(=O)c2ccnn2C)c(C)c1
348 nM: IC50 [5]
316 nM: IC50 [3]
341 nM: IC50 [4]
334 nM: IC50 [1]
inactive: viability, T/C [6] 87.8% | viability, T/C [7] 83.8% | viability, T/C [8] 49.3% | viability, T/C [9] 31.3% | viability, T/C [10] 26% | viability, T/C [11] 20.1% | viability, T/C [12] 88.5% | viability, T/C [13] 83.8% | viability, T/C [14] 51.2% | viability, T/C [15] 31% | viability, T/C [16] 25.7% | viability, T/C [17] 21.3% | viability, T/C [18] 86.2% | viability, T/C [19] 78% | viability, T/C [20] 49.2% | viability, T/C [21] 30.1% | viability, T/C [22] 24.2% | viability, T/C [23] 21.9% | viability, T/C [24] 83.5% | viability, T/C [25] 77.3% | viability, T/C [26] 49.6% | viability, T/C [27] 33% | viability, T/C [28] 25.9% | viability, T/C [29] 22.7% | viability, T/C [30] 78.2% | viability, T/C [31] 71.7% | viability, T/C [32] 50.5% | viability, T/C [33] 33.9% | viability, T/C [34] 25% | viability, T/C [35] 23.2%
359 nM: IC50 [2]

COc1cccc2c1C(=O)c1c(O)c3c(c(O)c1C2=O)CC(O)(C(=O)CO)CC3OC1CC(N)C(O)C(C)O1 (centres undefined)
409 nM and 319 nM and 140 nM: IC50 (curve of compound)
active: viability, T/C (compound 3.16 µM) 1.61% and 1.62% and 1.55% | viability, T/C (compound 10 µM) 0.78% and 0.83% and 0.85%
inactive: viability, T/C (compound 0.0316 µM) 67.3% and 67.5% and 58.1% | viability, T/C (compound 0.1 µM) 70.1% and 60.3% and 55.9% | viability, T/C (compound 0.316 µM) 56.7% and 50.1% and 38.2% | viability, T/C (compound 1 µM) 23.9% and 24.6% and 18.1%

Reference: PubChem BioAssay AID1919007 (Molecular Pharmacology Branch, DTP, NCI, 2023)
